The values that follow come from paper PMC4637315, “Hydroxycarboxylic acid receptors are essential for breast cancer cells to control their lipid/fatty acid metabolism” (Oncotarget, 2015).

Common to all, as to format: cell-based
Assay [1] has as its target T1, HCA1 (Homo sapiens, UniProt Q9BXC0).
T1 construct: gene HCAR1; endogenous receptor in BT-474 cells
Kind of assay: cAMP decrease in BT-474 cells, blocked by pertussis toxin.

A further assay addresses T2, HCA2 (Homo sapiens, UniProt Q8TDS4).
T2 construct: gene HCAR2; endogenous receptor in BT-474 cells
Kind of assay: AlphaScreen cAMP assay, inhibition of forskolin-induced cAMP in BT-474 cells, pertussis toxin sensitive. For orientation: Bead proximity is the source of the signal in Alpha formats.

Assay [2] addresses T3, HCA3 (Homo sapiens, UniProt P49019).
T3 construct: gene HCAR3; endogenous receptor in BT-474 cells
Described as above.

Assay [3] has as its target T3, HCA3. Kind of assay: cAMP decrease in BT-474 cells, blocked by pertussis toxin.
In assay [4] the target is T1, HCA1. Kind of assay: AlphaScreen cAMP assay, inhibition of forskolin-induced cAMP in BT-474 cells, pertussis toxin sensitive.

T1 sequence (Q9BXC0 whole entry): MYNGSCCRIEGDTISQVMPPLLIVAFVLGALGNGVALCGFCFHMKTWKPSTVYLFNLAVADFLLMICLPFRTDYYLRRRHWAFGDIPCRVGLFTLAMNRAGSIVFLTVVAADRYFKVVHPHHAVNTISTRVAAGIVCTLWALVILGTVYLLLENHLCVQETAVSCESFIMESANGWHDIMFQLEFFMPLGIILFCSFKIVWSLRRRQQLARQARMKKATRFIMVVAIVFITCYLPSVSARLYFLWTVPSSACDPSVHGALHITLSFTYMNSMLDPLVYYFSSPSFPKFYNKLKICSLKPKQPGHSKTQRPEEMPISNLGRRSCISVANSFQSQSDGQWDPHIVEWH
T3 sequence (P49019 whole entry): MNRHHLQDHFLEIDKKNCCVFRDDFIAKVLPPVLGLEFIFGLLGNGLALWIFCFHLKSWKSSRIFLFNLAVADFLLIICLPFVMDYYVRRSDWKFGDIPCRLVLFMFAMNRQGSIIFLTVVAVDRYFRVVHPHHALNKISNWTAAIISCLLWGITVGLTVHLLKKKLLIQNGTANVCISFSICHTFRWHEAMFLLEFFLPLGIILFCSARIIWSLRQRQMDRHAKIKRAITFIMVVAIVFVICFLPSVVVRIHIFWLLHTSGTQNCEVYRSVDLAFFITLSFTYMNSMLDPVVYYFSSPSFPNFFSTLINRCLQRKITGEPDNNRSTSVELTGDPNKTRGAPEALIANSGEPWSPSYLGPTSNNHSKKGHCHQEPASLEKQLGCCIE
T2 sequence (Q8TDS4 whole entry): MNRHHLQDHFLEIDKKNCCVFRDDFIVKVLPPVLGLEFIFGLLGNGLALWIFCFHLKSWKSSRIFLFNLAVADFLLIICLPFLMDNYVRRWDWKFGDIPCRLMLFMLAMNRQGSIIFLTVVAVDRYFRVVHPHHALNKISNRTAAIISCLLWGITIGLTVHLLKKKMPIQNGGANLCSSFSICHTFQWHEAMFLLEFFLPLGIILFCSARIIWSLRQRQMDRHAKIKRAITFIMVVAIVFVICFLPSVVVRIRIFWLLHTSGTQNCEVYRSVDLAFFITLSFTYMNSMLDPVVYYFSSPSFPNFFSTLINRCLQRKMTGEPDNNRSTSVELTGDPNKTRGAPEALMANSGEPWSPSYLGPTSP

Regarding `O=C(O)c1cc(O)cc(O)c1` [3,5 DHB, 3,5-dihydroxybenzoic acid], at HCA1 [1], the “cAMP decrease in BT-474 cells, blocked by pertussis toxin” value is on record as “synthetic HCA agonist-induced decrease in intracellular cAMP levels in BT-474 cells (Figure 3D-F)”. Broadly, the EC50 is the concentration at which the effect is half-maximal. A higher EC50 goes with a less potent agent. On to `CC(O)CC(=O)O` (centres unmarked) [3HB, 3-hydroxybutyrate], for which the 50% effective concentration (EC50) at HCA2 amounted to 460 µM. Compound `CCCCCC(O)CC(=O)O` (centres unmarked) [3HO, 3-hydroxyoctanoate] gave an EC50 at HCA3 [2] of 9.5 µM. On to `CC(C)n1nnc2cc(C(=O)O)ccc21` [IPBT-5CA, 1-(1-methylethyl)-1H-benzotriazole-5-carboxylic acid], for which the “cAMP decrease in BT-474 cells, blocked by pertussis toxin” value on HCA3 [3] was “synthetic HCA agonist-induced decrease in intracellular cAMP levels in BT-474 cells (Figure 3D-F)”. As for `C[C@H](O)C(=O)O` [lactate], a half-maximal effect on HCA1 [4] (EC50) was put at 3400 µM.
